Test results as given in patent US7320679B2, “Therapeutic use of growth factor, and delivery device, especially for the treatment of intimal hyperplasia” (Ark Therapeutics, Ltd., priority 1996, dated 2008).
Several values for one entry are separate records, joined by “and”; a condition that tells them apart may be missing. Equal values may be shown once. Entries after “also recorded” stand apart in the source; their conditions may differ. Read-outs that look alike come from different tables or passages of the source.

Tests used:
Assay type in all cases: cell-based, human
cPLA2 = cPLA2 mobility shift assay in HUVEC; design: effect of PD98059 on VEGF-stimulated increase in slow-migrating cPLA2: dose or concentration left out as unconfirmed
Method: (§1) Cell Culture: HUVECs were obtained either from Clonetics and cultured in the manufacturer's own medium supplemented with 2% FBS, or were grown from fresh umbilical cords by collagenase digestion and cultured on 1% gelatin-coated plates in medium 199 supplemented with 20% FCS and endothelial cell growth supplement (Wheeler-Jones et al, Biochem. J. (1996) 315:407-416). For experimental purposes, primary cultures of HUVEC were dispersed by treatment with 0.05% trypsin/0.02% EDTA for 5 min at 37° C. and then replated in either 90 mm, 60 mm or 35 mm plastic dishes, or onto 24-well plates. Cultures were maintained in a humidified atmosphere containing 5% CO2 and […] at 37° C. and used after 6-8 days or when the cells had formed a confluent monolayer. […] The PGI2 content of cell supernatants was quantified by radioimmunoassay of 6-keto-PGF1a, the stable breakdown product of PGI2 as previously described (Wheeler-Jones et al, supra). Arachidonic Acid Release: Arachidonic acid release was determined essentially as described (Domin and Rozengurt, J. Biol. Chem. (1993) 268:8927-8934.). Confluent HUVEC cultures were incubated for 24 h with [5,6,8,9,11,12,14,15-^3H]arachidonic acid (1 mCi/ml, 211 Ci/mmol). […] After treatment, the medium was removed, centrifuged in a microcentrifuge at 16,000×g for 5 min, and the radioactivity in the supernatant was determined by counting in a scintillation counter. Western Blotting Procedures: Treatment of quiescent cultures of cells with factors, and cell lysis were performed as described above and in the Results and Figure Legends. After SDS-PAGE, proteins were transferred to Immobilon membranes (Millipore Inc.). For MAP kinase assays, membranes were blocked using 5% non-fat dried milk in PBS, pH 7.2, and incubated for 3-5 h in PBS/0.05% Tween-20 containing primary antibody (1 mg/ml) as indicated. For immunoblots with antibody to cPLA2, membranes were blocked for 3 h in TBST50 mM Tris/HCl, 150 mM NaCl, 0.02% (v/v) Tween 20 pH 7.4 (TBST) containing 0.2% (w/v) 1-block (Tropix), then incubated with primary antiserum in TBST. Membranes were then washed six times (10 min each wash) in TBST and incubated for 1 hour in TBST containing HRP-conjugated secondary antibody. Immunoreactive bands were visualized by chemiluminescence using HRP-conjugated anti-mouse or anti-rabbit IgG and ECL™ reagent according to the manufacturers instructions. MAP Kinase Assay: Cells were treated with factors as indicated, washed rapidly twice with ice-cold PBS and immediately extracted by the addition of […] boiling 2×SDS-PAGE sample buffer. Cell extracts were collected by scraping, heated to 95° C. for 10 min and run on 12.5% acrylamide SDS-PAGE gels. Following transfer to Immobilon membranes, proteins were immunoblotted with an antibody which specifically recognizes p42 and p44 MAP kinases (Erk-1 and Erk-2) activated by phosphorylation at Tyr204 (Payne e al, EMBO J. (1991) 10:885-892.). cPLA2 Mobility Shift Assay: Confluent quiescent HUVECs in 60 mm dishes were washed twice in serum-free medium 199 (pH 7.4) and subsequently exposed, for the times indicated, to medium containing factors as detailed in the Figure legends. Cell lysates were prepared as previously described (Wheeler-Jones et al, supra). Proteins were separated by SDS-PAGE (10% acrylamide) and after transfer to membranes were immunoblotted with polyclonal anti-serum to cPLA2 (BorschHaubold et al, J. Biol. Chem. (1995) 270: 25885-25892; and Kramer et al, J. Biol. Chem. (1996) 271:27723-27729). Assay of vWF Secretion: vWF secretion was measured by ELISA (Wheeler-Jones et al, supra) in samples of medium obtained from confluent cultures of HUVECs which had been treated with factors, as indicated. Plates were coated with the anti-vWF mAb CLBRAg35, and the lower detection limit of the assay was approximately 1.0 mU/ml. Materials: Recombinant VEGF was obtained either from UBI or from R & D Systems. […]

p42/p44 MAP kinases = assay: MAP kinase assay (phospho-p42/p44 immunoblot) in HUVEC; design: inhibition of VEGF-stimulated MAP kinase activity: dose or concentration left out as unconfirmed
Method: as §1

vWF secretion by HUVECs = assay: vWF secretion by ELISA in HUVEC; design: effect of PD98059 on VEGF-induced vWF secretion: dose or concentration left out as unconfirmed
Method: as §1

PGI2 synthesis in HUVEC = assay: PGI2 assay (radioimmunoassay of 6-keto-PGF1a) in HUVEC; settings: for mean fold increase in 6-keto PGF1a above control unstimulated level: 60 min, 60 ng/ml PIGF, 1 U/ml thrombin
Method: as §1

[1] = test system: arachidonic acid release in HUVEC; assay: Arachidonic acid release from prelabelled HUVEC
Method: as §1

HUVECs = assay: Migration of HUVECs in chemotaxis chambers; settings: PIGF 5-60 ng/ml
[2] = test system: 205 kD protein corresponding to VEGF receptor; assay: Anti-phosphotyrosine immunoprecipitation/immunoblot in HUVEC; settings: HUVEC
Method: In some experiments, cells were pretreated for 1 h with 100 μM L-NAME and subsequently treated either with or without. […] The medium was removed and cells were rapidly lysed at 4° C. by addition of 10 mM Tris/HCl (pH 7.6), 5 mM EDTA, 50 mM NaCl, 30 mM sodium pyrophosphate, 50 mM NaF, 0.1 mM Na3VO4, 1 mM PMSF and 1% Triton X-100 (lysis buffer). Lysates were clarified by centrifugation at 15000×g for 10 min, and immunoprecipitations were performed by incubating clarified lysates with PY20 anti-phosphotyrosine mAb for 2 h at […] Immunoprecipitates were collected by incubating lysates for a further 1 hour with protein A-agarose. Immunoprecipitates were washed three times with lysis buffer and proteins were then extracted with 2×SDS-PAGE sample buffer. After SDS-PAGE, immunoprecipitated proteins were transferred to membranes and then immunoblotted with PY20 mAb.

NO production in HUVEC = assay: Nitrite (NO) production in HUVEC, capillary detection method
Method: Nitrite production was measured using capillary detection method (Leone et al, in Methods in Nitric Oxide Research, Feelisch and Stanler, eds. John Wiley & Sons, New York (1996) 499-508).

COc1cccc(-c2cc(=O)c3ccccc3o2)c1N [PD98059, reference compound]
effect of PD98059 on VEGF-stimulated increase in slow-migrating cPLA2 (cPLA2): completely blocked; also recorded: complete inhibition | concentration reducing MAP kinase activity to control, unstimulated level (p42/p44 MAP kinases): 10 to 20 mM | inhibition of VEGF-stimulated MAP kinase activity (p42/p44 MAP kinases): greater than 50% | effect of PD98059 on VEGF stimulation of p42/p44 MAP kinases (p42/p44 MAP kinases; 30 min pretreatment): completely inhibited; also recorded: complete inhibition | effect of PD98059 on VEGF-induced vWF secretion (vWF secretion by HUVECs): neither prevented nor significantly reduced; also recorded: no effect | effect of PD98059 on basal or thrombin-stimulated vWF secretion (vWF secretion by HUVECs): no effect | concentration of maximum inhibitory effect on stimulated PGI2 production (PGI2 synthesis in HUVEC): 10 µM | effect of PD98059 on VEGF-induced PGI2 production (PGI2 synthesis in HUVEC; 30 mM PD98059 30 min pretreatment, 25 ng/ml VEGF 60 min): completely inhibited; also recorded: complete inhibition | effect of PD98059 on thrombin-induced PGI2 production (PGI2 synthesis in HUVEC; 30 mM PD98059 30 min pretreatment, 1 U/ml thrombin 60 min): completely inhibited | inhibitor concentration at which PGI2 production fell below control values (PGI2 synthesis in HUVEC; VEGF-treated cells): greater than 10 mM | PGI2 production in control, unstimulated cells (PGI2 synthesis in HUVEC; basal): abolished

VEGF
concentration of maximum arachidonic acid release [1]: 10 to 20 ng/mL | half-maximum effect on arachidonic acid release [1]: 2.5 to 5 ng/mL | mean increase in release of labelled arachidonic acid above basal unstimulated level [1]: 1.6 fold | time at which arachidonic acid release was evident [1]: 10 min | time of half-maximum arachidonic acid mobilization [1]: 10 min | time of maximum arachidonic acid release [1]: 30 min | cPLA2 mobility shift (in words) (cPLA2): marked increase in the immunoreactivity of the slow-migrating form | concentration giving noticeable increase in slow-migrating cPLA2 (cPLA2): 2.5 ng/mL | concentration of maximum increase in slow-migrating cPLA2 (cPLA2): 5 to 10 ng/mL and 5 ng/mL | time at which cPLA2 shift to slow-migrating form was detectable (cPLA2; VEGF 25 ng/ml): 2 min | time for which cPLA2 shift was sustained (cPLA2; VEGF 25 ng/ml): up to 60 min | time of maximum cPLA2 shift (cPLA2; VEGF 25 ng/ml): 15 min | concentration of maximum MAP kinase activation (p42/p44 MAP kinases; 15 min exposure): 10 ng/mL and 5 to 10 ng/mL | concentration up to which maximum MAP kinase effect was sustained (p42/p44 MAP kinases; 15 min exposure): up to 50 ng/ml | vWF secretion (in words) (vWF secretion by HUVECs): comparable to, though consistently weaker than, that of thrombin | vWF level above control cells (vWF secretion by HUVECs; 25 ng/ml VEGF, 3 h): 2.5 fold | concentration of maximum effect on vWF secretion (vWF secretion by HUVECs; highest concentration tested): 25 ng/mL | chemotaxis of HUVECs (HUVECs): concentration-dependent increase in chemotaxis | concentration range inducing tyrosine phosphorylation of 205 kDa protein [2]: 1 to 25 ng/mL | time for which PGI2 production was sustained (PGI2 synthesis in HUVEC): up to 2 h | time up to which PGI2 production continued to increase (PGI2 synthesis in HUVEC): up to 60 min | PGI2 synthesis at 25 ng/ml (PGI2 synthesis in HUVEC; 25 ng/ml VEGF): small decline | mean fold increase in 6-keto PGF1a above control unstimulated level (PGI2 synthesis in HUVEC; 25 ng/ml VEGF): 2.0 fold and 2 fold | concentration at which increase in PGI2 synthesis was detectable (PGI2 synthesis in HUVEC; 60 min incubation): 5 ng/mL | concentration of maximum PGI2 synthesis (PGI2 synthesis in HUVEC; 60 min incubation): 15 ng/mL | half-maximal PGI2 synthesis (PGI2 synthesis in HUVEC; 60 min incubation): 10 ng/mL | time for which NO production was sustained (NO production in HUVEC): up to 2 hours | half-maximal effect on NO production (NO production in HUVEC; HUVEC, nitrite levels): 5 ng/mL | nitrite production level (NO production in HUVEC; VEGF 2.5 ng/ml, 10 minutes (first of two levels)): ~19 µM | nitrite production level (NO production in HUVEC; VEGF 25 ng/ml for times up to 2 h): 1.8 to 2 µM | nitrite production level (NO production in HUVEC; VEGF 25 ng/ml, 10 minutes (second of two levels)): ~2.1 µM | earliest time effect on NO production seen (NO production in HUVEC; after addition of VEGF): 30 s | time of maximum NO production (NO production in HUVEC; after addition of VEGF): 5 min

thrombin [reference compound]
mean increase in release of labelled arachidonic acid above basal unstimulated level ([1]; four independent experiments): 3.4 fold | cPLA2 mobility shift (in words) (cPLA2): striking shift | mean fold increase in 6-keto PGF1a above control unstimulated level (PGI2 synthesis in HUVEC; 25 ng/ml VEGF): 4.4 fold

B1: PIGF: VEGF-related factor, a specific ligand for the Flt-1 VEGF receptor; recombinant (protein)
chain: AVPPQQWALSAGNGSSEVEVVPFQEVWGRSYCRALERLVDVVSEYPSEVEHMFSPSCVSLLRCTGCCGDENLHCVPVETANVTMQLLKIRSGDRPSYVELTFSQHVRCECRPLREKMKPERCGDAVPRR
arachidonic acid release (in words) ([1]; prelabelled HUVECs): no detectable significant increase | cPLA2 mobility shift (in words) (cPLA2): no detectable shift | MAP kinase activity (in words) (p42/p44 MAP kinases; PIGF 1-60 ng/ml): little, if any, detectable increase; also recorded: little effect | vWF secretion (in words) (vWF secretion by HUVECs): no detectable stimulation | chemotaxis of HUVECs (HUVECs): no detectable increase | mean fold increase in 6-keto PGF1a above control unstimulated level (PGI2 synthesis in HUVEC; 25 ng/ml VEGF): 1.3 fold
